Patent US6479435B1, “Diaryl ethers and processes for their preparation and herbicidal and desiccant compositions containing them” (ISK Americas Incorporated, priority 1997, dated 2002)

Columns and labels:
Type in all cases: in vivo
[1] = system: soybean (Glycine max L., var. Pella 86, SOY); test: Post-emerge greenhouse test, crop damage rating; design: key to crop damage rating SOY: 0-100 scale: 0 = no damage, 100 = complete death of all plants; details: 14 days after application; for crop damage rating SOY: scale 0-100
Outline: (§1)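 Compounds in acetone with 0.25% v/v non-ionic surfactant were track-sprayed at 187 l/ha over plants at the 2-3 leaf stage, at 63 to 1000 g ai/ha. Pots were bottom-watered. Injury was scored visually 14 days later on a 0-100 scale, where 0 is no damage and 100 is complete plant death.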

[2] = system: soybean (Glycine max L., var. Pella 86, SOY); test: Pre-emerge greenhouse test, crop damage rating; design: key to SOY crop damage rating: 0 = no damage, 100 = complete death of all plants; details: 14 days after application, rating scale 0-100
Outline: (§2)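 Seeds sown in sandy loam mix one day before track-sprayer application of compounds in acetone at 125–1000 g ai/ha (187 l/ha), then surface-watered to incorporate and bottom-watered. Visual rating 14 days after application on a 0–100 scale (0 = no damage, 100 = all plants dead).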

[3] = system: common ragweed (Ambrosia artemisiifolia L., AMBEL); test: Post-emerge greenhouse herbicide test, phytotoxicity rating; details: 14 days after application; for phytotoxicity rating AMBEL: scale 0-100
Outline: as §1

[4] = system: green foxtail (Setaria viridis, SETVI); test: Pre-emerge greenhouse herbicide test, phytotoxicity rating; details: 14 days after application, rating scale 0-100
Outline: as §2

[5] = system: large crabgrass (Digitaria sanguinalis, DIGSA); test: as above; details: 14 days after application, rating scale 0-100
Outline: as §2

[6] = system: common ragweed (Ambrosia artemisiifolia L., AMBEL); test: as above; details: 14 days after application, rating scale 0-100
Outline: as §2

[7] = system: sicklepod (Cassia obtusifolia, CASOB); test: as above; details: 14 days after application, rating scale 0-100
Outline: as §2

[8] = system: barnyardgrass (Echinochloa crusgalli, ECHCG); test: as above; details: 14 days after application, rating scale 0-100
Outline: as §2

[9] = system: lambsquarters (Chenopodium album, CHEAL); test: as above; details: 14 days after application, rating scale 0-100
Outline: as §2

[10] = system: redroot pigweed (Amaranthus retroflexus, AMARE); test: as above; details: 14 days after application, rating scale 0-100
Outline: as §2

[11] = system: Johnsongrass (Sorghum halepense, SORHA); test: as above; details: 14 days after application, rating scale 0-100
Outline: as §2

[12] = system: velvetleaf (Abutilon theophrasti, ABUTH); test: as above; details: 14 days after application, rating scale 0-100
Outline: as §2

[13] = system: ivyleaf morningglory (Ipomoea hederacea, IPOHE); test: as above; details: 14 days after application, rating scale 0-100
Outline: as §2

[14] = system: green foxtail (Setaria viridis, SETVI); test: Post-emerge greenhouse herbicide test, phytotoxicity rating; details: 14 days after application; for phytotoxicity rating SETVI: scale 0-100
Outline: as §1

[15] = system: large crabgrass (Digitaria sanguinalis, DIGSA); test: as above; details: 14 days after application; for phytotoxicity rating DIGSA: scale 0-100
Outline: as §1

[16] = system: sicklepod (Cassia obtusifolia, CASOB); test: as above; details: 14 days after application; for phytotoxicity rating CASOB: scale 0-100
Outline: as §1

[17] = system: barnyardgrass (Echinochloa crusgalli, ECHCG); test: as above; details: 14 days after application; for phytotoxicity rating ECHCG: scale 0-100
Outline: as §1

[18] = system: lambsquarters (Chenopodium album, CHEAL); test: as above; details: 14 days after application; for phytotoxicity rating CHEAL: scale 0-100
Outline: as §1

[19] = system: redroot pigweed (Amaranthus retroflexus, AMARE); test: as above; details: 14 days after application; for phytotoxicity rating AMARE: scale 0-100
Outline: as §1

[20] = system: Johnsongrass (Sorghum halepense, SORHA); test: as above; details: 14 days after application; for phytotoxicity rating SORHA: scale 0-100
Outline: as §1

[21] = system: velvetleaf (Abutilon theophrasti, ABUTH); test: as above; details: 14 days after application; for phytotoxicity rating ABUTH: scale 0-100
Outline: as §1

[22] = system: ivyleaf morningglory (Ipomoea hederacea, IPOHE); test: as above; details: 14 days after application; for phytotoxicity rating IPOHE: scale 0-100
Outline: as §1

[23] = system: upland rice (Oryza sp., var.Tebonnet, RICE); test: Pre-emerge greenhouse test, crop damage rating; details: 14 days after application, rating scale 0-100
Outline: as §2

[24] = system: field corn (Zea mays L., var. Dekalb 535, CORN); test: Pre-emerge greenhouse test, crop damage rating; details: 14 days after application, rating scale 0-100
Outline: as §2

[25] = system: upland rice (Oryza sp., var.Tebonnet, RICE); test: Post-emerge greenhouse test, crop damage rating; details: 14 days after application; for crop damage rating RICE: scale 0-100
Outline: as §1

[26] = system: field corn (Zea mays L., var. Dekalb 535, CORN); test: Post-emerge greenhouse test, crop damage rating; details: 14 days after application; for crop damage rating CORN: scale 0-100
Outline: as §1

Structure (SMILES): Cc1nsc(Oc2cc(-n3nnn(CCCF)c3=O)c(F)cc2Cl)c1[N+](=O)[O-] [Compound 6-17]
- SOY crop damage rating (0-100) ([1]; 63 g al/ha): 0
- SOY crop damage rating (0-100) ([1]; 500 g al/ha): 0
- crop damage rating SOY ([2]; 125 g ai/ha): 0
- crop damage rating SOY ([2]; 500 g ai/ha): 0
- AMBEL phytotoxicity rating (0-100) ([3]; 63 g al/ha): 0
- AMBEL phytotoxicity rating (0-100) ([3]; 500 g al/ha): 0
- phytotoxicity rating SETVI ([4]; 125 g ai/ha): 0
- phytotoxicity rating SETVI ([4]; 500 g ai/ha): 0
- phytotoxicity rating DIGSA ([5]; 125 g ai/ha): 0
- phytotoxicity rating DIGSA ([5]; 500 g ai/ha): 0
- phytotoxicity rating AMBEL ([6]; 125 g ai/ha): 0
- phytotoxicity rating AMBEL ([6]; 500 g ai/ha): 0
- phytotoxicity rating CASOB ([7]; 125 g ai/ha): 0
- phytotoxicity rating CASOB ([7]; 500 g ai/ha): 0
- phytotoxicity rating ECHCG ([8]; 125 g ai/ha): 0
- phytotoxicity rating ECHCG ([8]; 500 g ai/ha): 0
- phytotoxicity rating CHEAL ([9]; 125 g ai/ha): 0
- phytotoxicity rating CHEAL ([9]; 500 g ai/ha): 0
- phytotoxicity rating AMARE ([10]; 125 g ai/ha): 0
- phytotoxicity rating AMARE ([10]; 500 g ai/ha): 0
- phytotoxicity rating SORHA ([11]; 125 g ai/ha): 0
- phytotoxicity rating SORHA ([11]; 500 g ai/ha): 0
- phytotoxicity rating ABUTH ([12]; 125 g ai/ha): 0
- phytotoxicity rating ABUTH ([12]; 500 g ai/ha): 0
- phytotoxicity rating IPOHE ([13]; 125 g ai/ha): 0
- phytotoxicity rating IPOHE ([13]; 500 g ai/ha): 0
- SETVI phytotoxicity rating (0-100) ([14]; 63 g al/ha): 0
- SETVI phytotoxicity rating (0-100) ([14]; 500 g al/ha): 0
- DIGSA phytotoxicity rating (0-100) ([15]; 63 g al/ha): 0
- DIGSA phytotoxicity rating (0-100) ([15]; 500 g al/ha): 0
- CASOB phytotoxicity rating (0-100) ([16]; 63 g al/ha): 0
- CASOB phytotoxicity rating (0-100) ([16]; 500 g al/ha): 0
- ECHCG phytotoxicity rating (0-100) ([17]; 63 g al/ha): 0
- ECHCG phytotoxicity rating (0-100) ([17]; 500 g al/ha): 0
- CHEAL phytotoxicity rating (0-100) ([18]; 63 g al/ha): 0
- CHEAL phytotoxicity rating (0-100) ([18]; 500 g al/ha): 0
- AMARE phytotoxicity rating (0-100) ([19]; 63 g al/ha): 0
- AMARE phytotoxicity rating (0-100) ([19]; 500 g al/ha): 0
- SORHA phytotoxicity rating (0-100) ([20]; 63 g al/ha): 0
- SORHA phytotoxicity rating (0-100) ([20]; 500 g al/ha): 0
- ABUTH phytotoxicity rating (0-100) ([21]; 63 g al/ha): 0
- ABUTH phytotoxicity rating (0-100) ([21]; 500 g al/ha): 0
- IPOHE phytotoxicity rating (0-100) ([22]; 63 g al/ha): 0
- IPOHE phytotoxicity rating (0-100) ([22]; 500 g al/ha): 0
- crop damage rating RICE ([23]; 125 g ai/ha): 6
- crop damage rating RICE ([23]; 500 g ai/ha): 0
- crop damage rating CORN ([24]; 125 g ai/ha): 0
- crop damage rating CORN ([24]; 500 g ai/ha): 0
- RICE crop damage rating (0-100) ([25]; 63 g al/ha): 0
- RICE crop damage rating (0-100) ([25]; 500 g al/ha): 0
- CORN crop damage rating (0-100) ([26]; 63 g al/ha): 0
- CORN crop damage rating (0-100) ([26]; 500 g al/ha): 0

Structure (SMILES): O=c1n(-c2cc(Oc3nc(F)c(F)cc3F)c(Cl)cc2F)c(=S)n2n1CCCC2 [Compound 8-28]
- crop damage rating SOY ([1]; rate 63 g ai/ha): 50
- crop damage rating SOY ([1]; rate 500 g ai/ha): 90
- SOY crop damage rating ([2]; Rate 125 g al/ha): 10
- SOY crop damage rating ([2]; Rate 500 g al/ha): 10
- phytotoxicity rating AMBEL ([3]; rate 63 g ai/ha): 50
- phytotoxicity rating AMBEL ([3]; rate 500 g ai/ha): 90
- SETVI phytotoxicity rating ([4]; Rate 125 g al/ha): 100
- SETVI phytotoxicity rating ([4]; Rate 500 g al/ha): 100
- DIGSA phytotoxicity rating ([5]; Rate 125 g al/ha): 100
- DIGSA phytotoxicity rating ([5]; Rate 500 g al/ha): 100
- AMBEL phytotoxicity rating ([6]; Rate 125 g al/ha): 80
- AMBEL phytotoxicity rating ([6]; Rate 500 g al/ha): 100
- CASOB phytotoxicity rating ([7]; Rate 125 g al/ha): 100
- CASOB phytotoxicity rating ([7]; Rate 500 g al/ha): 90
- ECHCG phytotoxicity rating ([8]; Rate 125 g al/ha): 60
- ECHCG phytotoxicity rating ([8]; Rate 500 g al/ha): 95
- CHEAL phytotoxicity rating ([9]; Rate 125 g al/ha): 100
- CHEAL phytotoxicity rating ([9]; Rate 500 g al/ha): 100
- AMARE phytotoxicity rating ([10]; Rate 125 g al/ha): 100
- AMARE phytotoxicity rating ([10]; Rate 500 g al/ha): 100
- SORHA phytotoxicity rating ([11]; Rate 125 g al/ha): 90
- SORHA phytotoxicity rating ([11]; Rate 500 g al/ha): 95
- ABUTH phytotoxicity rating ([12]; Rate 125 g al/ha): 100
- ABUTH phytotoxicity rating ([12]; Rate 500 g al/ha): 100
- IPOHE phytotoxicity rating ([13]; Rate 125 g al/ha): 30
- IPOHE phytotoxicity rating ([13]; Rate 500 g al/ha): 40
- phytotoxicity rating SETVI ([14]; rate 63 g ai/ha): 30
- phytotoxicity rating SETVI ([14]; rate 500 g ai/ha): 90
- phytotoxicity rating DIGSA ([15]; rate 63 g ai/ha): 20
- phytotoxicity rating DIGSA ([15]; rate 500 g ai/ha): 30
- phytotoxicity rating CASOB ([16]; rate 63 g ai/ha): 50
- phytotoxicity rating CASOB ([16]; rate 500 g ai/ha): 100
- phytotoxicity rating ECHCG ([17]; rate 63 g ai/ha): 10
- phytotoxicity rating ECHCG ([17]; rate 500 g ai/ha): 80
- phytotoxicity rating CHEAL ([18]; rate 63 g ai/ha): 90
- phytotoxicity rating CHEAL ([18]; rate 500 g ai/ha): 100
- phytotoxicity rating AMARE ([19]; rate 63 g ai/ha): 100
- phytotoxicity rating AMARE ([19]; rate 500 g ai/ha): 100
- phytotoxicity rating SORHA ([20]; rate 63 g ai/ha): 40
- phytotoxicity rating SORHA ([20]; rate 500 g ai/ha): 60
- phytotoxicity rating ABUTH ([21]; rate 63 g ai/ha): 100
- phytotoxicity rating ABUTH ([21]; rate 500 g ai/ha): 100
- phytotoxicity rating IPOHE ([22]; rate 63 g ai/ha): 90
- phytotoxicity rating IPOHE ([22]; rate 500 g ai/ha): 95
- RICE crop damage rating ([23]; Rate 125 g al/ha): 25
- RICE crop damage rating ([23]; Rate 500 g al/ha): 70
- CORN crop damage rating ([24]; Rate 125 g al/ha): 15
- CORN crop damage rating ([24]; Rate 500 g al/ha): 15
- crop damage rating RICE ([25]; rate 63 g ai/ha): 10
- crop damage rating RICE ([25]; rate 500 g ai/ha): 40
- crop damage rating CORN ([26]; rate 63 g ai/ha): 10
- crop damage rating CORN ([26]; rate 500 g ai/ha): 20
